US20260232767A1, “INTERLEUKIN-23 RECEPTOR ANTAGONIST PEPTIDES FOR USE IN THE TREATMENT OF PSORIASIS” (Janssen Pharmaceutica NV, priority 2023, published 2026)

Tested on: subjects with moderate-to-severe plaque psoriasis
Test: PASI response, Example 1 16-week dose-ranging study
Format: in vivo, human
Settings: Week 16; for PASI 100% Improvement, n subjects / PASI ≥75% Improvement, n subjects / PASI ≥90% Improvement, n subjects / PASI ≥75% Improvement, % subjects / PASI ≥90% Improvement, % subjects: N=2
Method: The Psoriasis Area and Severity Index (PASI) is a system used for assessing and grading the severity of psoriatic lesions and their response to therapy. In the PASI system, the body is divided into four regions: the head, trunk, upper extremities, and lower extremities. Each of these areas is assessed and scored separately for erythema, induration, and scaling, which are each rated on a scale of 0 to 4 and extent of involvement on a scale of 0 to 6. The PASI produces a numeric score (a “PASI score”) that can range from 0 to 72. A higher score indicates more severe disease.
This was a randomized, double-blind, placebo-controlled, dose-ranging, parallel group, multicenter, interventional study in subjects with moderate-to-severe plaque psoriasis. A target of 240 subjects were enrolled in this study with 40 subjects planned per intervention group.
Clinician-reported outcomes including Psoriasis Area and Severity Index (PASI), Body Surface Area (BSA), Investigator's Global Assessment (IGA), Nail Psoriasis Area and Severity Index (NAPSI), Fingernail Physician's Global Assessment (f-PGA), Static Physician's Global Assessment of Genitalia (s-PGA-G), Physician's Global Assessment of Hands and/or Feet (hf-PGA), and Scalp Specific Investigator Global Assessment (ss-IGA) were obtained at Week 0, 8, and 16. PASI and IGA were also obtained at Weeks 1, 2, 4, and 12, and at Week 20, four weeks after the administration of the tablets has stopped.
The primary efficacy endpoint was the proportion of participants achieving a PASI 75 response at Week 16, defined as at least a 75% reduction from baseline in PASI total score.
For the primary analysis, composite strategy (non-responder imputation) was applied to address intercurrent event #1 (Discontinuation of study intervention due to lack of efficacy or due to an AE of worsening of psoriasis) and #2 (initiation of a protocol-prohibited medication or therapy that could improve psoriasis); and treatment policy strategy (observed data) was applied to intercurrent event #3 (Discontinuation of study intervention due to other reasons). Participants with missing data after application of ICEs are also considered as non-responders.
In addition to the response analysis, pairwise comparisons of each treatment group versus the placebo group were performed for the primary endpoint of PASI 75 at Week 16. Pairwise comparisons were not adjusted for multiplicity. The Cochran-Mantel-Haenszel chi-square statistic stratified by baseline weight category (≤90 kg, >90 kg) at a 2-sided significance level of 0.05 was used (Table 2).

[1] = 25 mg BID, peak plasma conc. <Q1
[2] = 25 mg BID, peak plasma conc. Q1 to <Q2
[3] = 25 mg BID, peak plasma conc. Q2 to <Q3
[4] = 25 mg BID, peak plasma conc. ≥Q3
[5] = 25 mg BID, trough plasma conc <Q1
[6] = 25 mg BID, trough plasma conc Q1 to <Q2
[7] = 25 mg BID, trough plasma conc Q2 to <Q3
[8] = 25 mg BID, trough plasma conc ≥Q3
[9] = 25 mg QD, peak plasma conc. <Q1
[10] = 25 mg QD, peak plasma conc. Q1 to <Q2
[11] = 25 mg QD, peak plasma conc. Q2 to <Q3
[12] = 25 mg QD, peak plasma conc. ≥Q3
[13] = 25 mg QD, trough plasma conc <Q1
[14] = 25 mg QD, trough plasma conc Q1 to <Q2
[15] = 25 mg QD, trough plasma conc Q2 to <Q3

Structure (SMILES): CC(=O)NCCCC[C@@H]1NC(=O)[C@H](Cc2c[nH]c3c(C)cccc23)NC(=O)[C@H]([C@@H](C)O)NC(=O)[C@H](CC(N)=O)NC(=O)[C@@H](NC(C)=O)C(C)(C)SSC(C)(C)[C@@H](C(=O)N[C@@H](Cc2ccc(OCCN)cc2)C(=O)N[C@@H](Cc2ccc3ccccc3c2)C(=O)NC2(C(=O)N[C@@H](CCC(=O)O)C(=O)N[C@@H](CC(N)=O)C(=O)N[C@@H](Cc3cccnc3)C(=O)N(C)CC(N)=O)CCOCC2)NC1=O [IL-23 receptor antagonist peptide, Ac-[Pen]*-N-T-[W(7-Me)]-[Lys(Ac)]-[Pen]*-Phe[4-(2-aminoethoxy)]-[2-Nal]-[THP]-E-N-[3-Pal]-Sarc-NH2 (*[Pen]-[Pen]* formdisulfidebond)]
- PASI 75 treatment difference vs placebo (25 mg BID): 41.9%
- PASI 90 treatment difference vs placebo (25 mg BID): 24.5% (10.4%,
- PASI 100 treatment difference vs placebo (25 mg BID): 9.7% (0.7%,
- Subjects achieving PASI 75 (25 mg BID): 51.2%
- Subjects achieving PASI 90 (25 mg BID): (26.8%)
- Subjects achieving PASI 100 (25 mg BID): (9.8%)
- PASI 75, % (25 mg BID, N=41): (51.2) %
- PASI 90, % (25 mg BID, N=41): (26.8) %
- PASI 100, % (25 mg BID, N=41): (9.8) %
- PASI 100% Improvement, n subjects [1]: 0
- PASI ≥75% Improvement, n subjects [1]: 0
- PASI ≥90% Improvement, n subjects [1]: 0
- PASI 100% Improvement, n subjects [2]: 0
- PASI ≥75% Improvement, % subjects [2]: (100.0%)
- PASI ≥75% Improvement, n subjects [2]: 2
- PASI ≥90% Improvement, n subjects [2]: 0
- PASI 100% Improvement, n subjects [3]: 0
- PASI ≥75% Improvement, % subjects [3]: (50.0%)
- PASI ≥75% Improvement, n subjects [3]: 1
- PASI ≥90% Improvement, % subjects [3]: (50.0%)
- PASI ≥90% Improvement, n subjects [3]: 1
- PASI 100% Improvement, n subjects [4]: 0
- PASI ≥75% Improvement, % subjects [4]: (50.0%)
- PASI ≥75% Improvement, n subjects [4]: 1
- PASI ≥90% Improvement, % subjects [4]: (50.0%)
- PASI ≥90% Improvement, n subjects [4]: 1
- PASI 100% Improvement, subjects [5]: 1 (16.7%)
- PASI ≥75% Improvement, subjects [5]: 3 (50.0%)
- PASI ≥90% Improvement, subjects [5]: 2 (33.3%)
- PASI 100% Improvement, subjects [6]: 1 (16.7%)
- PASI ≥75% Improvement, subjects [6]: 1 (16.7%)
- PASI ≥90% Improvement, subjects [6]: 1 (16.7%)
- PASI 100% Improvement, subjects [7]: 0
- PASI ≥75% Improvement, subjects [7]: 3 (50.0%)
- PASI ≥90% Improvement, subjects [7]: 2 (33.3%)
- PASI 100% Improvement, subjects [8]: 2 (33.3%)
- PASI ≥75% Improvement, subjects [8]: 100.0%
- PASI ≥90% Improvement, subjects [8]: 3 (50.0%)
- PASI 75 treatment difference vs placebo (25 mg QD): 27.9%
- PASI 90 treatment difference vs placebo (25 mg QD): 23.3% (9.6%,
- PASI 100 treatment difference vs placebo (25 mg QD): 11.6% (2.4%,
- Subjects achieving PASI 90 (25 mg QD): (25.6%)
- Subjects achieving PASI 100 (25 mg QD): (11.6%)
- PASI 75, % (25 mg QD, N=43): (37.2) %
- PASI 90, % (25 mg QD, N=43): (25.6) %
- PASI 100, % (25 mg QD, N=43): (11.6) %
- PASI 100% Improvement, n subjects [9]: 0
- PASI ≥75% Improvement, % subjects [9]: (50.0%)
- PASI ≥75% Improvement, n subjects [9]: 1
- PASI ≥90% Improvement, % subjects [9]: (50.0%)
- PASI ≥90% Improvement, n subjects [9]: 1
- PASI 100% Improvement, n subjects [10]: 0
- PASI ≥75% Improvement, % subjects [10]: (50.0%)
- PASI ≥75% Improvement, n subjects [10]: 1
- PASI ≥90% Improvement, % subjects [10]: (50.0%)
- PASI ≥90% Improvement, n subjects [10]: 1
- PASI 100% Improvement, n subjects [11]: 0
- PASI ≥75% Improvement, % subjects [11]: (50.0%)
- PASI ≥75% Improvement, n subjects [11]: 1
- PASI ≥90% Improvement, % subjects [11]: (50.0%)
- PASI ≥90% Improvement, n subjects [11]: 1
- PASI 100% Improvement, n subjects [12]: 0
- PASI ≥75% Improvement, % subjects [12]: (50.0%)
- PASI ≥75% Improvement, n subjects [12]: 1
- PASI ≥90% Improvement, % subjects [12]: (50.0%)
- PASI ≥90% Improvement, n subjects [12]: 1
- PASI 100% Improvement, subjects [13]: 1 (20.0%)
- PASI ≥75% Improvement, subjects [13]: 2 (40.0%)
- PASI ≥90% Improvement, subjects [13]: 2 (40.0%)
- PASI 100% Improvement, subjects [14]: 1 (16.7%)
- PASI ≥75% Improvement, subjects [14]: 2 (33.3%)
- PASI ≥90% Improvement, subjects [14]: 2 (33.3%)
- PASI 100% Improvement, subjects [15]: 0)
- PASI ≥75% Improvement, subjects [15]: 2 (40.0%)
- PASI ≥90% Improvement, subjects [15]: 0
